In patent US20060014641A1 (priority 2004, published 2006):

Key:
boll weevil larvae [1] = test: Cotton seed diet assay; assay type: in vivo; settings: cottonseed flour diets, after six days, in the presence of cotton plant components
Method: Two treatment diets are made by mixing 30 g of one of two types of cottonseed flour into 170 mL of a 1.6% agar solution at 50% C, containing 0.13% propionic acid, 0.014% phosphoric acid, and 30 mg each of streptomycin sulfate and chlortetracycline. Before mixing, 10% KOH was used to adjust the pH to 6.2. One test diet utilized raw cottonseed flour (Sigma) as the nutrient source; the other utilized Pharmamedia.™. (Traders Protein), a flour made up of cottonseed embryos. The diets were incubated in a water bath at 40% C. Dilutions of the oxalate are incorporated into the diets as described above. Boll weevil larvae are allowed to feed and mortality rates are determined after six days.

boll weevil larvae [2] = test: Boll weevil larvae bioassay (agar liquid diet); settings: in vivo
Method: Boll Weevil Larvae Bioassay
Assays for activity against boll weevil larvae are carried out by incorporating the test sample into a agar liquid diet similar to that for southern corn rootworm [Marrone P. G., Ferri F. D., Mosley T. R., Meinke L. J., “Improvements in laboratory rearing of the southern corn rootworm, Diabrotica undecimpunctata howardi Barber (Coleoptera: Chrysomelidae) on artificial diet and corn,” Journal of Economic Entomology, 78:290-3, 1985]. The test sample is substituted for the 20% water component. Neonate larvae are allowed to feed on the diet and mortality and growth stunting are evaluated.

boll weevil larvae [3] = test: Homogenized cotton leaf tissue assay; assay type: in vivo; settings: cotton leaf tissue agar diet, evaluated six days later
Method: Homogenized Cotton Leaf Tissue Assay In order to test oxalate against boll weevil larvae in a host tissue diet environment, a study is conducted in which cotton leaf tissue is the only nutritional component of an agar-based diet. Two cotton leaves (each approx. 5 inches wide) with stems are homogenized at 50% C into 170 mL of a 1.6% agar solution containing 0.13% propionic acid, 0.014% phosphoric acid, and 30 mg each of streptomycin sulfate and chlortetracycline. Before addition of the leaves, 10% KOH is used to adjust the pH of the agar solution to 6.2. The leaf “diet” is allowed to cool to 40% C. Dilutions of oxalate and a water control are incorporated into the leaf “diet”, poured into insect diet trays and allowed to cool. Boll weevil eggs are added to the diet wells. The assay is evaluated six days later. […] This will illustrate that the oxalate is insecticidal in the presence of intact cotton tissue and cells.

adult boll weevils = test: Boll weevil reproduction test; assay type: in vivo; settings: oxalate in standard diet
Method: Preoviposition: Approximately 220 adult boll weevils, collected within 2 days of emergence, are divided into two groups. […] The adults are allowed to feed and mate for four days at which time mortality is determined. Oviposition study: These two groups of adults are then divided into two subgroups and individually placed on artificial, oxalate-containing or control bolls. […] After three days at 27% C, the adults are removed and ten bolls from each of the four groups are removed and examined for eggs. The remaining bolls are incubated for an additional 7 days at 27% C to allow development of larvae. The bolls are then dissected and the eggs and larvae, dead and surviving, are counted. • Group 1=Control Adults placed on control bolls • Group 2=Control Adults placed on treated bolls • Group 3=oxalate-fed adults placed on control bolls • Group 4=oxalate-fed adults placed on treated bolls Mode of Action Studies

Lepidopteran larvae = Lepidopteran larvae bioassay (artificial diet); design: species or system lepidopteran insects; settings: in vivo
Method: Lepidopteran Larvae Bioassay
Lepidopteran larvae are tested on artificial diet treated with various amounts of oxalate for a number of days.

With `O=C(O)C(=O)O` [Oxalate, oxalic acid] the “mortality of boll weevil larvae” value (boll weevil larvae [1]) was “lethal”, the “effect on boll weevil larvae” value (boll weevil larvae [2]) was “lethal” and the “insecticidal activity in the presence of cotton leaf tissue” value (boll weevil larvae [3]) was “maintains its insecticidal activity”. For the same compound, the “effect on reproductive cycle of adult boll weevils” value (adult boll weevils) was “affect the reproductive cycle”, the “effect on reproductive cycle of adult boll weevils” value (adult boll weevils; listed as Oxlate) was “interrupt the reproductive cycle” and the “mortality and stunting of larvae of lepidopteran insects” value (Lepidopteran larvae) was “mortality and stunting”.
